Experimental data as given in patent publication US20230265083A1, “Heterocycle CDK Inhibitors And Their Use Thereof” (Prelude Therapeutics Incorporated, priority 2020, published 2023).

Assays:
CDK4/Cyclin D1 = target: T1, CDK4/Cyclin D1 (Homo sapiens, UniProt P11802); assay: CDK4/CyclinD1 Enzymatic Activity Assay (TR-FRET); format: biochemical; conditions: ATP 2 mM, recombinant CDK4/Cyclin D1 1 nM, read-out: CDK4_D1 IC50
T1 construct: purchased ProQinase; host or cells: insect cell
Protocol: CDK4/CyclinD1 Enzymatic Activity Assay
(§1) The inhibitory activity of compounds was evaluated in vitro using TR-FRET assay with white 384-well low volume microplate (Greiner Bio-One). CDK4/Cyclin D1 catalyzed phosphorylation of peptides in the presence and absence of compounds was measured and used in IC50 determination. Recombinant protein complex CDK4/Cyclin D1, expressed from insect cell, was purchased from ProQinase. Testing compounds were dissolved in DMSO at 1 mM and tested in 9-dose IC50 mode. The reaction mixture was prepared by mixing CDK4/CyclinD1 (1 nM final), ULight-4E-BP1 (100 nM final, Perkinelmer, TRF0128-D), and ATP (2 mM final) in assay buffer (20 mM of HEPES pH 7.4, 1 mM of EGTA, 0.05% BSA, 0.005% Tween 20, and 1 mM TCEP). The compound of interest in DMSO was added to each well in 3-fold serial dilution by the dispenser (TECAN D300E) to make a 9.9 μL of the reaction mixture. After 20 minutes of preincubation at room temperature, 0.1 μL MgCl2 (10 mM final) was added to initiate the reaction. Following a 45 minutes incubation at 37° C., the reaction was stopped by the addition of 2 μL of quenching buffer consisting of Lance detection buffer (Perkinelmer CR97-100C), LANCE Ultra Europium-anti-P-4E-BP1 (Perkinelmer, TRF0216-D), EDTA, and incubate at room temperature for additional 60 minutes in the dark. The reaction signal was measured by Envision multimode plate reader (PerkinElmer, 2102-0010). IC50 values were determined by fitting the data to the standard 4 parameters with Hill Slope using GraphPad Prism software.

CDK9/Cyclin T1 = target: T2, CDK9/Cyclin T1 (Homo sapiens, UniProt P50750); assay: CDK9/CyclinT1 Enzymatic Activity Assay (TR-FRET); format: biochemical; conditions: ATP 1 mM, recombinant CDK9/Cyclin T1 1 nM, read-out: CDK9_T1 IC50
T2 construct: purchased ProQinase; host or cells: insect cell
T2 sequence (P50750 whole entry): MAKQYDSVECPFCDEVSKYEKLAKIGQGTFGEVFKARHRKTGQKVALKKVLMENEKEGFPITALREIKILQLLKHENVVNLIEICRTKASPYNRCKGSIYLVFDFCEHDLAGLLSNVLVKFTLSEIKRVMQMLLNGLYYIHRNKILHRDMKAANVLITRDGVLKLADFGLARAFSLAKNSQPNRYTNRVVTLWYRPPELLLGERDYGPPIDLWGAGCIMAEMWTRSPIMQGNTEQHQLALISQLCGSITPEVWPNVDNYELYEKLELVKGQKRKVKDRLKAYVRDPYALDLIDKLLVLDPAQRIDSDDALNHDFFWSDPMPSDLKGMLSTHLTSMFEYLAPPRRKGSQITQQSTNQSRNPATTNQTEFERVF
T2 sequence (O60563 whole entry partner): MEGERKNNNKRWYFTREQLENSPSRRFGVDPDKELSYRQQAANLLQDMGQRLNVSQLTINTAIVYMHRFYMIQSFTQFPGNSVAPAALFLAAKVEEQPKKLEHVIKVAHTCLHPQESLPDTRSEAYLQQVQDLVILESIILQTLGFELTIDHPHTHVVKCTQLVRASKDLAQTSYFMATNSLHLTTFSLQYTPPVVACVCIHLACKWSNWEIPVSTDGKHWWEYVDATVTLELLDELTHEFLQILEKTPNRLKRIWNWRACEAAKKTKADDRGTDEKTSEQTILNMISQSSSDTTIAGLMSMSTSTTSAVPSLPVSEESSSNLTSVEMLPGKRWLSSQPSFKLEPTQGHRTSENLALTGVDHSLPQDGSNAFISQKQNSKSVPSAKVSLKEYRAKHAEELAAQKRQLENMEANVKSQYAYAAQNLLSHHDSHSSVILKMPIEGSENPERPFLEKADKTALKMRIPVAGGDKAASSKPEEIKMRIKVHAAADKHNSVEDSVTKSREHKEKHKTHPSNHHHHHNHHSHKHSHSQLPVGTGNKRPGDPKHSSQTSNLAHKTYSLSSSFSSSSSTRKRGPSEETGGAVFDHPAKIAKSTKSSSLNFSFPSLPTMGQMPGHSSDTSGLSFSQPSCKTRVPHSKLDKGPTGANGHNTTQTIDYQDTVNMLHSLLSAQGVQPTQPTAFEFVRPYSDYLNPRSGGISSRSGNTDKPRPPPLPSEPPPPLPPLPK
Protocol: CDK9/CyclinT1 Enzymatic Activity Assay
as §1, with “Bio-One). CDK9/Cyclin T1” for “Bio-One). CDK4/Cyclin D1”, “complex CDK9/Cyclin T1,” for “complex CDK4/Cyclin D1,”, “mixing CDK9/CyclinT1” for “mixing CDK4/CyclinD1”, “ULight-4E-BP1 (50” for “ULight-4E-BP1 (100”, “ATP (1” for “ATP (2”

H929 cells = assay: CellTiter-Glo Protocol (Proliferation); format: cell-based; conditions: Homo sapiens, NCI-H929, 24 hours, read-out: PROLIFERATION_CTG_H929 IC50
Protocol: CellTiter-Glo® Protocol (Proliferation)
Dispense 10 μL aliquot of prepared H929 cells (1:1 ratio of cells: Trypan Blue (#1450013, Bio-Rad)) onto cell counting slide (#145-0011, Bio-Rad) and obtain cell density and cell viability using a cell counter (TC20, Bio-Rad). Remove appropriate volume of resuspended cells from culture flask to accommodate 4000 cells/well at 10 μL/well. Transfer H929 cells to 50 mL conical (#430290, Corning). Spin down at 1000 rpm for 5 min. using a tabletop centrifuge (SPINCHRON 15, Beckman). Discard supernatant and resuspend cell pellet in modified RPMI 1640 (#10-040-CV, Corning) cell culture media containing 10% FBS (F2422-500ML, Sigma), sodium pyruvate (100 mM) (#25-000-CL, Corning), HEPES buffer (1M) (#25-060-CL, Corning) and glucose (200 g/L) (A24940-01, Gibco) to a cell density of 400,000 cells/mL. Dispense 10 μL of resuspended H929 cells per well in 384-well small volume TC treated plate (#784080, Greiner Bio-one) using standard cassette (#50950372, Thermo Scientific) on Multidrop Combi (#5840310, Thermo Scientific) in laminar flow cabinet. Dispense compounds onto plates using a digital liquid dispenser (D300E, Tecan). Incubate plates in humidified tissue culture incubator at 37° C. for 24 hours. Add 10 μL of prepared CellTiTer-Glo® detection buffer (G7570, Promega) to each well of 384-well plate using small tube cassette (#24073295, Thermo Scientific) on Combi multi-drop, incubate at RT for 30-60 min. Read plates with a microplate reader (PheraStar, BMG Labtech) using 384 well luminescence mode. See Table B (Proliferation_CTG_H929).

T1 sequence (P11802 whole entry): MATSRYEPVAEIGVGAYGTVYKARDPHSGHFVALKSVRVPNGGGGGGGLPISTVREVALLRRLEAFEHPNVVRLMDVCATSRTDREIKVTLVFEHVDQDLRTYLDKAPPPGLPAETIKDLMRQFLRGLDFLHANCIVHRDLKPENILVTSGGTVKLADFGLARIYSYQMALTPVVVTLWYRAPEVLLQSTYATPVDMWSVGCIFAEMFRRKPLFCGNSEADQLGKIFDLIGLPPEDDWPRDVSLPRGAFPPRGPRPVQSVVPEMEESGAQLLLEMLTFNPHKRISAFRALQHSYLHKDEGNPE
T1 sequence (P24385 whole entry partner): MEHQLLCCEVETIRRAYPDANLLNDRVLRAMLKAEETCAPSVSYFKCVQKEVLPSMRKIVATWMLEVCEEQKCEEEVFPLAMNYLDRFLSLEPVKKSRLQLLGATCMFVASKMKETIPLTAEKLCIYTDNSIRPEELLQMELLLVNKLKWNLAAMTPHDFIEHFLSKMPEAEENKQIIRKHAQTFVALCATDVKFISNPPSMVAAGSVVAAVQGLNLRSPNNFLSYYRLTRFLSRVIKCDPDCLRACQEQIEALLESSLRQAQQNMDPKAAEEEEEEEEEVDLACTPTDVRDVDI

SMILES | IC50 (CDK4/Cyclin D1) | IC50 (CDK9/Cyclin T1) | IC50 (H929 cells)
CC1(C)Cc2cccc(-c3cc(NC(=O)[C@H]4CCC[C@@H](NC(=O)CC#N)C4)ncc3Cl)c2O1 [Example 15, (1S,3R)—N-(5-chloro-4-(2,2-dimethyl-2,3-dihydrobenzofuran-7-yl)pyridin-2-yl)-3-(2-cyanoacetamido)cyclohexane-1-carboxamide] | > 1000 nM | < 20 nM | –
CC1(C)COc2c(cccc2-c2cc(NC(=O)[C@H]3CCC[C@@H](NC(=O)CC#N)C3)ncc2Cl)N1 [Example 11, (1S,3R)—N-(5-chloro-4-(3,3-dimethyl-3,4-dihydro-2H-benzo[b][1,4]oxazin-8-yl)pyridin-2-yl)-3-(2-cyanoacetamido)cyclohexane-1-carboxamide] | > 1000 nM | < 20 nM | –
CC(=O)N[C@@H]1CCC[C@H](C(=O)Nc2cc(-c3cccc4c3OCCN4)c(Cl)cn2)C1 [Example 4, (1S,3R)-3-acetamido-N-(5-chloro-4-(3,4-dihydro-2H-benzo[b][1,4]oxazin-8-yl)pyridin-2-yl)cyclohexane-1-carboxamide] | > 1000 nM | < 20 nM | 20 to 200 nM
CC(=O)N[C@@H]1CCC[C@H](C(=O)Nc2cc(-c3cccc4c3CC(C)(C)O4)c(Cl)cn2)C1 [Example 14, (1S,3R)-3-acetamido-N-(5-chloro-4-(2,2-dimethyl-2,3-dihydrobenzofuran-4-yl)pyridin-2-yl)cyclohexane-1-carboxamide] | > 1000 nM | < 20 nM | 200 to 1000 nM
CC(=O)N[C@@H]1CCC[C@H](C(=O)Nc2cc(-c3cccc4c3CCCN4)c(Cl)cn2)C1 [Example 3, (1S,3R)-3-acetamido-N-(5-chloro-4-(1,2,3,4-tetrahydroquinolin-5-yl)pyridin-2-yl)cyclohexane-1-carboxamide] | > 1000 nM | 20 to 200 nM | 20 to 200 nM
CC(=O)N[C@@H]1CCC[C@H](C(=O)Nc2cc(-c3cccc4c3OCC(C)(C)N4)c(Cl)cn2)C1 [Example 9, (1S,3R)-3-acetamido-N-(5-chloro-4-(3,3-dimethyl-3,4-dihydro-2H-benzo[b][1,4]oxazin-8-yl)pyridin-2-yl)cyclohexane-1-carboxamide] | > 1000 nM | < 20 nM | –
Cc1cnc(NC(=O)[C@H]2CCC[C@@H](NC(=O)CC#N)C2)cc1-c1cccc2c1CC(C)(C)N2 [Example 6, (1S,3R)-3-(2-cyanoacetamido)-N-(4-(2,2-dimethylindolin-4-yl)-5-methylpyridin-2-yl)cyclohexane-1-carboxamide] | > 1000 nM | < 20 nM | –

More lines, now with the values ahead:

IC50 (CDK4/Cyclin D1) | IC50 (CDK9/Cyclin T1) | IC50 (H929 cells) | SMILES
20 to 200 nM | < 20 nM | – | N#CCC(=O)N[C@@H]1CCC[C@H](C(=O)Nc2cc(-c3cccc4c3OCCN4)c(Cl)cn2)C1 [Example 10, (1S,3R)—N-(5-chloro-4-(3,4-dihydro-2H-benzo[b][1,4]oxazin-8-yl)pyridin-2-yl)-3-(2-cyanoacetamido)cyclohexane-1-carboxamide]
200 to 1000 nM | < 20 nM | 20 to 200 nM | CC(=O)N[C@@H]1CCC[C@H](C(=O)Nc2cc(-c3cccc4c3CC(C)N4)c(Cl)cn2)C1 (stereo partly drawn) [Example 2, (1S,3R)-3-acetamido-N-(5-chloro-4-(2-methylindolin-4-yl)pyridin-2-yl)cyclohexane-1-carboxamide]
200 to 1000 nM | < 20 nM | 20 to 200 nM | CC(=O)N[C@@H]1CCC[C@H](C(=O)Nc2cc(-c3cccc4c3CCN4)c(Cl)cn2)C1 [Example 1, (1S,3R)-3-acetamido-N-(5-chloro-4-(indolin-4-yl)pyridin-2-yl)cyclohexane-1-carboxamide]
20 to 200 nM | < 20 nM | – | CC1COc2c(cc(F)cc2-c2cc(NC(=O)[C@H]3CCC[C@@H](NC(=O)CC#N)C3)ncc2Cl)N1 (stereo partly drawn) [Example 13, (1S,3R)—N-(5-chloro-4-(6-fluoro-3-methyl-3,4-dihydro-2H-benzo[b][1,4]oxazin-8-yl)pyridin-2-yl)-3-(2-cyanoacetamido)cyclohexane-1-carboxamide]
